Measurements: patent US9643967B2, “Pyrrolo[3,2-c]pyridine derivatives as TLR inhibitors” (TAKEDA PHARMACEUTICAL COMPANY LIMITED, priority 2013, dated 2017)
Where two headings read alike, the source gives them in different places.

Target: T1, mTLR9 (Mus musculus, UniProt Q9EQU3)
T1 construct: Splenocytes isolated from male C57/BL6 mice; from tissue; host or cells: splenocytes from the spleen of male C57BL/6 mice
T1 sequence (Q9EQU3 26-1032): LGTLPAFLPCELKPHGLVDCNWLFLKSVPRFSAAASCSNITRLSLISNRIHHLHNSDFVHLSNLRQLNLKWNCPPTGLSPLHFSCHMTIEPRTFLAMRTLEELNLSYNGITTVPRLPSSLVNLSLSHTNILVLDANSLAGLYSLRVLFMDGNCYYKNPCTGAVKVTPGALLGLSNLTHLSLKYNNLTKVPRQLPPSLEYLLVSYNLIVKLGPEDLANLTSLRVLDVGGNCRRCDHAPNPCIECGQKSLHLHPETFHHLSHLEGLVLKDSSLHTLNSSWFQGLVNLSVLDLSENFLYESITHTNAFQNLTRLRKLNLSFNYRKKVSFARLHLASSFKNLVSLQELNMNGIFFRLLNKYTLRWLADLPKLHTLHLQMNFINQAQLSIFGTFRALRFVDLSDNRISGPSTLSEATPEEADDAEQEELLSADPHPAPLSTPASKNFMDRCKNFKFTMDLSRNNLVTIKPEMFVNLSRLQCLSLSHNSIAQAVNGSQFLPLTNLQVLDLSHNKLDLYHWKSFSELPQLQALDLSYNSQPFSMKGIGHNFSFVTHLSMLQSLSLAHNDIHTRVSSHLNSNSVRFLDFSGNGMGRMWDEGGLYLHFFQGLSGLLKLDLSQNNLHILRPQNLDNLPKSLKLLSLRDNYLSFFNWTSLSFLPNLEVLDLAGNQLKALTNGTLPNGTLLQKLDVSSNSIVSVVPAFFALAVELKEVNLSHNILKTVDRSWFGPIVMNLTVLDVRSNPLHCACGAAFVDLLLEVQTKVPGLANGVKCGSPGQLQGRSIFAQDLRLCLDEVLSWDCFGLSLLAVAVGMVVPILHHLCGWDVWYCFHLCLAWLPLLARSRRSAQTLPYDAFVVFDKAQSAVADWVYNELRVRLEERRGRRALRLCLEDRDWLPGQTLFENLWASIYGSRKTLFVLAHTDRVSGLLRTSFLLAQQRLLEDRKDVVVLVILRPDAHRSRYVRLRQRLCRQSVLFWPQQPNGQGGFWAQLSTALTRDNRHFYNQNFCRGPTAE
Test: mTLR9 antagonism (IL-6 and TNF-α release assay) in mouse splenocytes, CpG ODN-2006 stimulated
Assay type: cell-based
Conditions: 1 μM, mouse splenocytes
Text: mTLR9 and mTLR7 Antagonism (Cytokine Release Assay) in Mouse Splenocytes
TLR7 ligand R0006 (IDT, 5′-rU*rU*rG*rU*rU*rG*rU*rU*rG*rU*rU*rG*rU*rU*rG*rU*rU*rG*rU*rU-3′ (SEQ ID NO:1)), Liposomal transfection reagent—DOTAP (Roche, Cat. No. 11202375001), TLR9 ligand CpG ODN2006 (Sequence: T*C*G*T*C*G*T*T*T*T*G*T*C*G*T*T*T*T*G*T*C*G*T*T; *=phosphorothioate (SEQ ID NO:2)) DMSO (Sigma, D2650), RPMI Powder (Sigma, R6504), Fetal Bovine Serum (Gibco, 10270), Dulbecco's Phosphate Buffered Saline (Sigma, D1408), 96 well plate (Flat bottom, Costar 3599), ELISA kit for IL-6 (EBioscience, 88-7064-77 and TNFa (EBioscience, 88-7346-88), MACS Buffer (AutoMACS Rinsing Solution (Miltenyl Biotec, 130-091-222)+0.05% BSA), RBC lysis buffer (0.85% NH4Cl), 40 μm cell strainer (BD Falcon, 352340) Method: A. Isolation of Mouse Splenocytes
Mouse spleen was isolated from C57BL6 mouse and stored in 1× chilled PBS buffer until further processed. Spleen was transferred to a sterile petriplate and chopped in to 5-6 pieces in presence of MACS buffer (100 μl) with the help of fresh surgical blade and crushed with flat plunger of a sterile syringe. A uniform suspension was prepared by passing cells through a 40 μm cell strainer. Cells were centrifuged at 450×g for 5 minutes at 4° C., supernatant was discarded and pellet dislodged gently, resuspended in 2 ml of pre-warmed (37° C.) RBC lysis buffer at room temperature with continuous gentle mixing with 1 ml pipette. Lysis buffer was neutralized with 12 ml of chilled MACS buffer and cells were passed through 40 μm cell strainer. Cell suspension was collected in 15 ml MACS buffer and centrifuged at 450×g for 5 minutes at 4° C. Pellet was resuspended in 15 ml MACS buffer and centrifuged at 400×g for 5 minutes. Cells were resuspended in 10 ml of RPMI complete medium and viability was estimated by Trypan blue method.
mTLR9 Antagonism (IL-6 and TNF-α Release Assay):
500 μM stock of CpG ODN-2006 was prepared in sterile, endotoxin-free water. Dilutions of 10× concentrations of NCEs were prepared in incomplete RPMI media, maintaining a final DMSO concentration of 0.3%. NCEs were added in a concentration range of 30 μM to 1 nM in respective wells of assay plate, assay medium containing 0.3% DMSO were added to control wells. 0.2 million splenocytes were added to all the wells and incubated at 37° C. in 5% CO2 incubator for 30 minutes. 1 μg/ml of respective agonist was added to all the wells except those were assigned as negative controls and mixed thoroughly. Incomplete RPMI was added to negative control wells and incubated overnight at 37° C./5% CO2. The plate was centrifuged at 450×g for 5 minutes at room temperature and the supernatant was collected. ELISA was performed as per manufacturer's protocol. S/B Ratio, % Activity and % Inhibition was calculated using MS Excel. IC50 and inhibition curve was generated using Graph Pad Prism.

[1] = IL-6 release, read-out: mTLR9 inhibitory activity (% at 1 μM), IL-6
[2] = TNF-α release, read-out: mTLR9 inhibitory activity (% at 1 μM), TNF-α

## CC(C)N1CCN(c2ccc(-c3nccc4[nH]c(CN5CCOCC5)cc34)cc2)CC1 [Example A1, 4-[[4-[4-(4-isopropylpiperazin-1-yl)phenyl]-1H-pyrrolo[3,2-c]pyridin-2-yl]methyl]morpholine]
[1]
  inhibition at 1 µM: 100%
[2]
  inhibition at 1 µM: 94%

## CN1CCN(c2ccc(-c3nccc4[nH]c(CN5CCOCC5)cc34)cc2)CC1 [Example A2, 4-[[4-[4-(4-methylpiperazin-1-yl)phenyl]-1H-pyrrolo[3,2-c]pyridin-2-yl]methyl] morpholine]
[1]
  inhibition at 1 µM: 100%
[2]
  inhibition at 1 µM: 94%

## CCN1CCN(c2ccc(-c3nccc4[nH]c(CN5CCOCC5)cc34)cc2)CC1 [Example A3, 4-[[4-[4-(4-ethylpiperazin-1-yl)phenyl]-1H-pyrrolo[3,2-c]pyridin-2-yl]methyl] morpholine]
[1]
  inhibition at 1 µM: 100%
[2]
  inhibition at 1 µM: 85%

## Cc1cc2[nH]c(CN3CCOCC3)cc2c(-c2ccc(N3CCN(C(C)C)CC3)cc2)n1 [Example A4, 4-[[4-[4-[4-isopropylpiperazin-1-yl)phenyl]-6-methyl-1H-pyrrolo[3,2-c]pyridin-2-yl]methyl] morpholine]
[1]
  inhibition at 1 µM: 100%
[2]
  inhibition at 1 µM: 100%

## CCN1CCN(c2ccc(-c3nc(C)cc4[nH]c(CN5CCOCC5)cc34)cc2)CC1 [Example A5, 4-[[4-[4-(4-ethylpiperazin-1-yl)phenyl]-6-methyl-1H-pyrrolo[3,2-c]pyridin-2-yl]methyl] morpholine]
[1]
  inhibition at 1 µM: 100%
[2]
  inhibition at 1 µM: 91%

## CC(C)N1CCN(c2ccc(-c3nccc4c3cc(CN3CCOCC3)n4C)cc2)CC1 [Example A8, 4-[[4-[4-(4-isopropylpiperazin-1-yl)phenyl]-1-methyl-pyrrolo[3,2-c]pyridin-2-yl]methyl] morpholine]
[2]
  inhibition at 1 µM: 100%

## CN1CCN(c2ccc(-c3nccc4c3cc(CN3CCOCC3)n4C)cc2)CC1 [Example A9, 4-[[1-methyl-4-[4-(4-methylpiperazin-1-yl)phenyl]pyrrolo[3,2-c]pyridin-2-yl]methyl] morpholine]
[2]
  inhibition at 1 µM: 94%

## CC(C)N1CCN(c2ccc(-c3nccc4[nH]c(CN5CCC(O)CC5)cc34)cc2)CC1 [Example A12, 1-[[4-[4-(4-isopropylpiperazin-1-yl)phenyl]-1H-pyrrolo[3,2-c]pyridin-2-yl]methyl] piperidin-4-ol]
[1]
  inhibition at 1 µM: 95%
[2]
  inhibition at 1 µM: 52%

## CC(C)N1CCN(c2ccc(-c3nccc4[nH]c(CN5CCC6(CC5)CC(O)C6)cc34)cc2)CC1 [Example A13, 7-[[4-[4-(4-isopropylpiperazin-1-yl)phenyl]-1H-pyrrolo[3,2-c]pyridin-2-yl]methyl]-7-azaspiro[3.5] nonan-2-ol]
[1]
  inhibition at 1 µM: 100%
[2]
  inhibition at 1 µM: 91%

## CC(C)N1CCN(c2ccc(-c3nccc4[nH]c(CN5CC(F)C5)cc34)cc2)CC1 [Example A16, 2-[(3-fluoroazetidin-1-yl)methyl]-4-[4-(4-isopropylpiperazin-1-yl)phenyl]-1H-pyrrolo[3,2-c]pyridine]
[1]
  inhibition at 1 µM: 100%
[2]
  inhibition at 1 µM: 100%

## CC(C)N1CCN(c2ccc(-c3nccc4[nH]c(CN5CCCCC5)cc34)cc2)CC1 [Example A17, 4-[4-(4-isopropylpiperazin-1-yl)phenyl]-2-(1-piperidylmethyl)-1H-pyrrolo[3,2-c]pyridine]
[1]
  inhibition at 1 µM: 100%
[2]
  inhibition at 1 µM: 100%

## CC(C)N1CCN(c2ccc(-c3nccc4[nH]c(CN5CCC(F)CC5)cc34)cc2)CC1 [Example A24, 2-[(4-fluoro-1-piperidyl)methyl]-4-[4-(4-isopropylpiperazin-yl)phenyl]-1H-pyrrolo[3,2-c] pyridine]
[2]
  inhibition at 1 µM: 100%

## CN1CCN(c2ccc(-c3nccc4[nH]c(CN5CCC(F)CC5)cc34)cc2)CC1 [Example A25, 2-[(4-fluoro-1-piperidyl)methyl]-4-[4-(4-methylpiperazin-1-yl)phenyl] - 1H-pyrrolo[3,2-c]pyridine]
[1]
  inhibition at 1 µM: 100%
[2]
  inhibition at 1 µM: 100%

## Cc1cc2[nH]c(Cn3cccn3)cc2c(-c2ccc(N3CCN(C(C)C)CC3)cc2)n1 [Example A28, 4-[4-(4-isopropylpiperazin-1-yl)phenyl]-6-methyl-2-(pyrazol-1-ylmethyl)-1H-pyrrolo[3,2-c]pyridine]
[1]
  inhibition at 1 µM: 100%
[2]
  inhibition at 1 µM: 100%

## Cc1cc2[nH]c(CN3CCC4(CC3)CC(O)C4)cc2c(-c2ccc(N3CCN(C(C)C)CC3)cc2)n1 [Example A29, 7-[[4-[4-(4-isopropylpiperazin-1-yl)phenyl]-6-methyl-1H-pyrrolo[3,2-c]pyridin-2-yl]methyl]-7-azaspiro[3.5] nonan-2-ol]
[1]
  inhibition at 1 µM: 96%
[2]
  inhibition at 1 µM: 64%

## Cc1cc2[nH]c(CN3CCC4(CC3)CC(C)C4)cc2c(-c2ccc(N3CCN(C(C)C)CC3)cc2)n1 [Example A30, 4-[4-(4-isopropylpiperazin-1-yl)phenyl]-6-methyl-2-[(2-methyl-7-azaspiro[3.5]nonan-7-yl)methyl]-1H-pyrrolo[3,2-c]pyridine]
[1]
  inhibition at 1 µM: 100%
[2]
  inhibition at 1 µM: 100%

## CC(C)N1CCN(c2ccc(-c3nc(C4CC4)cc4[nH]c(CN5CCOCC5)cc34)cc2)CC1 [Example A33, 4-[[6-cyclopropyl-4-[4-(4-isopropylpiperazin-1-yl)phenyl]-1H-pyrrolo[3,2-c]pyridin-2-yl]methyl] morpholine]
[2]
  inhibition at 1 µM: 85%

## CN1CCN(c2ccc(-c3nc(C4CC4)cc4[nH]c(CN5CCOCC5)cc34)cc2)CC1 [Example A34, 4-[[6-cyclopropyl-4-[4-(4-methylpiperazin-1-yl)phenyl]-1H-pyrrolo[3,2-c]pyridin-2-yl]methyl] morpholine]
[2]
  inhibition at 1 µM: 93%

## Cc1cc2c(cc(CN3CCOCC3)n2C)c(-c2ccc(N3CCN(C(C)C)CC3)cc2)n1 [Example A35, 4-[[4-[4-(4-isopropylpiperazin-1-yl]phenyl]-1,6-dimethyl-pyrrolo[3,2-c]pyridin-2-yl]methyl] morpholine]
[1]
  inhibition at 1 µM: 100%
[2]
  inhibition at 1 µM: 90%

## Cc1nc(-c2ccc(N3CCN(C(C)C)CC3)cc2)c2cc(CN3CCOCC3)[nH]c2c1C [Example A36, 4-[[4-[4-(4-isopropylpiperazin-1-yl)phenyl]-6,7-dimethyl-1H-pyrrolo[3,2-c]pyridin-2-yl]methyl] morpholine]
[2]
  inhibition at 1 µM: 100%
